Tests used:
c-Met [1] = target: T1, c-Met (Homo sapiens, UniProt P08581); test: c-Met autophosphorylation inhibitory activity (general statement)
Target sequence in this assay (P08581 25-1390): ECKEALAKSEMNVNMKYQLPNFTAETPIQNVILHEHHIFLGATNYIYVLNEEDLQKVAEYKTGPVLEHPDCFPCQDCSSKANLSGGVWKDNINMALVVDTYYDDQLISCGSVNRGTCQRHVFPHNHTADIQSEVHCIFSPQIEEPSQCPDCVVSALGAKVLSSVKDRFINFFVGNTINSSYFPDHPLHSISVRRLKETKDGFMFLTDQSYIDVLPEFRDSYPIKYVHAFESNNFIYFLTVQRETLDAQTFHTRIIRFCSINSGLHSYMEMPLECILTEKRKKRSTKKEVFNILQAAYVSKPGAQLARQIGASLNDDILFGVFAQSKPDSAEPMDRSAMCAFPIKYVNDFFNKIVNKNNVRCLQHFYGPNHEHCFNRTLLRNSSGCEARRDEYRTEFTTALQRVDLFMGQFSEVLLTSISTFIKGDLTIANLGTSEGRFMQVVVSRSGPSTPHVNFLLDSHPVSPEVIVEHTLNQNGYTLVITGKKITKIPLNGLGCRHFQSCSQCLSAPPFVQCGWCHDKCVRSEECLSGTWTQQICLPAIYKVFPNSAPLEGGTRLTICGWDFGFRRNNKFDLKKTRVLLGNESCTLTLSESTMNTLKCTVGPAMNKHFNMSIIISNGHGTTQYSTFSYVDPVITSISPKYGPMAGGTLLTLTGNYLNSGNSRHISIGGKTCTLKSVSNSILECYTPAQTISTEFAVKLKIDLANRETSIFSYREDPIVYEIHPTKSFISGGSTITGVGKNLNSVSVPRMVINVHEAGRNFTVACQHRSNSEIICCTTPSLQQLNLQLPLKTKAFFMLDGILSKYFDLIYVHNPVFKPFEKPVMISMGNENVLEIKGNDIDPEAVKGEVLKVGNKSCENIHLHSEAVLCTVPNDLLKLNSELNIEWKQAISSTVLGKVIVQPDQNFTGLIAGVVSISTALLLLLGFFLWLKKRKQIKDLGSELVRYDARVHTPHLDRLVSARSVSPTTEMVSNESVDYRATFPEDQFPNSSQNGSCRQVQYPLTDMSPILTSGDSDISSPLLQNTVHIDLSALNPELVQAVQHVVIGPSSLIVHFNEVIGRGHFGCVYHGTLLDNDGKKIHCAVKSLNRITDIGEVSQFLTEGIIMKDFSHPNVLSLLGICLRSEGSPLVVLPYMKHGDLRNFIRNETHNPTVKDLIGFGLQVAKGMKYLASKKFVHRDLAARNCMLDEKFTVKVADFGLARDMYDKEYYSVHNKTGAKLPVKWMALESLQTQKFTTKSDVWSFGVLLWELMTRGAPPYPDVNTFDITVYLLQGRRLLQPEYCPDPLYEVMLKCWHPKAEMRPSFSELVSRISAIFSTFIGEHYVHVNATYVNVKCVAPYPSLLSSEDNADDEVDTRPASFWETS

KDR = KDR (Homo sapiens, UniProt P35968); test: KDR autophosphorylation inhibitory activity (general statement)
c-Met [2] = target: T1, c-Met; test: Measurement (2) of inhibitory activity against c-Met autophosphorylation using ELISA method (MKN45 cells); type: cell-based; design: endogenous in cells; host or cells: MKN45; settings: c-Met phosphorylation in MKN45 cells, no HGF
Method: Human gastric cancer cell line MKN45 (available from Riken) was cultured in an RPMI 1640 medium containing 10% fetal calf serum (purchased from GIBCO BRL) within a 5% carbon dioxide incubator until 50 to 90% confluent. The harvested cells were inoculated into wells, containing an RPMI medium containing 0.1% fetal calf serum, in a 96-well flat-bottom plate in an amount of 2×10^4 per well, followed by cultivation at 37° C. overnight. The medium was then replaced by a fresh RPMI medium containing 0.1% fetal calf serum. The test compound dissolved in dimethyl sulfoxide was added to each well, and the cultivation was continued at 37° C. for additional one hr. The medium was removed, the cells were washed with phosphate buffered physiological saline (pH 7.4), and 50 μl of a solubilization buffer (20 mM HEPES (pH 7.4), 150 mM NaCl, 0.2%/0 Triton X-100, 100, 10% glycerol, 5 mM sodium orthovanadylate, 5 mM disodium ethylenediaminetetraacetate, and 2 mM Na4P2O7) was then added thereto. The mixture was shaken at 4° C. for 2 hr to prepare a cell extract.
Separately, phosphate buffered physiological saline (50 μl, pH 7.4) containing 5 μg/ml anti-phospho-tyrosine antibody (PY20; purchased from Transduction Laboratories) was added to a microplate for ELISA (Maxisorp; purchased from NUNC), followed by standing at 4° C. overnight to form a solid phase. After washing of the plate, 300 μl of a blocking solution was added, followed by standing at room temperature for 2 hr to perform blocking. After washing, the whole quantity of the cell extract was transferred, and the plate was then allowed to stand at 4° C. overnight. After washing, an anti-HGF receptor antibody (h-Met (C-12), purchased from Santa Cruz Biotechnology) was allowed to react at room temperature for one hr, and, after washing, a peroxidase-labeled anti-rabbit Ig antibody (purchased from Amersham) was allowed to react at room temperature for one hr. After washing, a chromophoric substrate for peroxidase (purchased from Sumitomo Bakelite Co., Ltd.) was added thereto to initiate a reaction. After a suitable level of color development, a reaction termination solution was added to stop the reaction, and the absorbance at 450 nm was measured with a microplate reader. The c-Met phosphorylation activity for each well was determined by presuming the absorbance without the addition of the test compound to be 100% c-Met phosphorylation activity and the absorbance with the addition of a largely excessive amount of positive control to be 0% c-Met phosphorylation activity. The concentration of the test compound was varied on several levels, the inhibition rate of c-Met-phosphorylation was determined for each case, and the concentration of the test compound necessary for inhibiting 50% of c-Met phosphorylation (IC50) was calculated.
Target sequence in this assay (P08581 25-1390): as above

[3] = tested on: Human gastric cancer cell line MKN 45; test: Tumor growth inhibitory activity against human gastric cancer cell line MKN 45 in nude mice; type: in vivo; settings: oral once a day
Method: Human gastric cancer cell line MKN 45 (available from Riken) was transplanted into nude mice. […] The test compound suspended in 0.5% methylcellulose was orally administered once a day for 9 days.
Only 0.5% methylcellulose was administered to the control group in the same manner as in the test groups. The tumor growth inhibition rate (TGIR) was calculated as follows: The tumor growth inhibition rate (TGIR)=(1−TX/CX)×100 wherein CX represents the volume of tumor at day X for the control group and TX represents the volume of tumor for test compound administration groups, when the tumor volume at the day of the start of the administration was presumed to be 1.

c-Met [4] = target: T1, c-Met; test: Measurement of human c-Met enzyme inhibitory activity (ELISA, Poly Glu:Tyr); type: biochemical; design: a part (955 to 1368aa) around human c-Met kinase domain; GST; made in house; host or cells: SF9 insect cells (baculovirus); settings: human c-Met kinase domain (955 to 1368aa), ATP 10 μM
Source text: cDNA coding for a part (955 to 1368aa) around human c-Met kinase domain was integrated into a pFastBac vector (Invitrogen) with a GST tag inserted therein, followed by transformation into DH10Bac to give Bacmid DNA which was then introduced into SF9 cells (GIBCO). Infection with a virus liquid was repeated five times, and SF9 cells were then broken, followed by purification using a GSH column to give a c-Met kinase active protein.
Poly Glu: Tyr=4:1 (SIGMA) was coated onto a 96-well immunoplate (442404, NALGE NUNC International K.K.). Kinase buffer (50 mM HEPES (pH 7.5), 25 mM NaCl, 0.01 mM Na3VO4, 0.01% BSA), a test compound, and the kinase protein were added, and the mixture was incubated for 10 min. ATP (10 μM, SIGMA) was then added, and a reaction was allowed to proceed for 10 min. The plate was washed three times with PBST and was reacted with a primary antibody PY-20 (BD-610000, B.D. Bioscience) and a secondary antibody GAM (NA-9310V, Abersham) each at room temperature for one hr. The plate was washed with PBST, color development was then carried out with SUMILON (ML-1120T, Sumitomo Bakelite Co., Ltd.), and phosphorylated tyrosine was quantitatively determined by measuring the absorbance at 450 nm. IC50 was calculated based on a concentration difference curve for the test compound by presuming the absorbance of the wells without the addition of ATP to be 100% inhibition and the absorbance of the wells with the addition of the medium for the test compound and ATP to be 0% inhibition.
Target sequence in this assay (P08581 955-1368): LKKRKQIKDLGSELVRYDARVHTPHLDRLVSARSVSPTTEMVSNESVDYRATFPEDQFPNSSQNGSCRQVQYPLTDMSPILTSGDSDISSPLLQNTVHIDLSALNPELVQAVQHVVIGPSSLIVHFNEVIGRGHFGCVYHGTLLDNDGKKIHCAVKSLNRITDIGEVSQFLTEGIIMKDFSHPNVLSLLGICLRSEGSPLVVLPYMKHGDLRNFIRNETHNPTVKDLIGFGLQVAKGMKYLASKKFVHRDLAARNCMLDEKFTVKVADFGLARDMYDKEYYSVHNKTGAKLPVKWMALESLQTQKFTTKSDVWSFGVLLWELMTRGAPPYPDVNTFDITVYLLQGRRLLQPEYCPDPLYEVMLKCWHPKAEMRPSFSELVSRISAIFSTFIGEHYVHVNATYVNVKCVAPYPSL

Sequence of KDR (P35968 20-1356): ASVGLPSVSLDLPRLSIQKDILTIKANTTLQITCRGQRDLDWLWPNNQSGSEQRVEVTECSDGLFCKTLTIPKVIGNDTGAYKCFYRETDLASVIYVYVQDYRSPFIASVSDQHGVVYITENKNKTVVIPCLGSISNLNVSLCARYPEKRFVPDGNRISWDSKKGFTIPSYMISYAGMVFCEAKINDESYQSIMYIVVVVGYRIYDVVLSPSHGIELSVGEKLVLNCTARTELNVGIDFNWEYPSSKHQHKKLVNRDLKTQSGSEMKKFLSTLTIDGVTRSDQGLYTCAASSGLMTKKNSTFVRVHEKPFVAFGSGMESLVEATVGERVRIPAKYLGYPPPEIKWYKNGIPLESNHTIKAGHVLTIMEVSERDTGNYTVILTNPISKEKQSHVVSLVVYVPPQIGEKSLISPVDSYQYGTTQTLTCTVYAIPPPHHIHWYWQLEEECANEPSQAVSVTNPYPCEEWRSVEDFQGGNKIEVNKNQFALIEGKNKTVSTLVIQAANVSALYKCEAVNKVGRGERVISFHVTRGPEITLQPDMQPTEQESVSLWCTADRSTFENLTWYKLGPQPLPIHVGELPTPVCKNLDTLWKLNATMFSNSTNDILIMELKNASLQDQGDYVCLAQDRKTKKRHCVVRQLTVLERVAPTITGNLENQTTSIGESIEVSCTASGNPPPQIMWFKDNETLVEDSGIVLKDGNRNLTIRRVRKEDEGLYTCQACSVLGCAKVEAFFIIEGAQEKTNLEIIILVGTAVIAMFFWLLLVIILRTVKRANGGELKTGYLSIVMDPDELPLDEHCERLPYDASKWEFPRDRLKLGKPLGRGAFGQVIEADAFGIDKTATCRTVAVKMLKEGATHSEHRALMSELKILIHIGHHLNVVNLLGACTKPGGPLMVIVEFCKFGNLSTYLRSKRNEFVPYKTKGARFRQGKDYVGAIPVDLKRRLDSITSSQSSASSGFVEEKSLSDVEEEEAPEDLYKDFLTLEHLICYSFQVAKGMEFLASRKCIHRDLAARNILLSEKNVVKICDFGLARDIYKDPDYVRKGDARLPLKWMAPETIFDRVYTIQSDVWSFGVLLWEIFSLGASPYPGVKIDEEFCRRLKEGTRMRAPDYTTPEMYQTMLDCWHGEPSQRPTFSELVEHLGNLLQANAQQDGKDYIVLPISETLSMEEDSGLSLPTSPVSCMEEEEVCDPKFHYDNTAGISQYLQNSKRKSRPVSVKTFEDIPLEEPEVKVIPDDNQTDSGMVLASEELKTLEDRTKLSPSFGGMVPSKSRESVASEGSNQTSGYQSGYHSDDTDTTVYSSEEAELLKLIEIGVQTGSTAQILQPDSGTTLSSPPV

Structure (SMILES)	c-Met autophosphorylation inhibitory activity (c-Met [1])	KDR autophosphorylation inhibitory activity (KDR)	IC50 (c-Met [2])	TGIR (tumor growth inhibition rate) ([3]; 9th day)	IC50 (c-Met [4])	TGIR (tumor growth inhibition rate) ([3]; 10th day)
COc1cc(Oc2ccnc3cc(OCCCN4CCOCC4)c(OC)cc23)ccc1NC(=S)NC(=O)Cc1ccccc1 [Compound B, N-{2-methoxy-4-[6-methoxy-7-(3-morpholinopropoxy)-4-quinolyl]oxyphenyl}-N′-(2-phenylacetyl)thiourea]	high	low				
Cn1ccnc1-c1cc2nccc(Oc3ccc(NC(=S)NC(=O)Cc4ccc(F)cc4)cc3Cl)c2s1 [Example 1, N-(3-Chloro-4-{[2-(1-methyl-1H-2-imidazolyl)thieno[3,2-b]pyridin-7-yl]oxy}phenyl)-N-[2-(4-fluorophenyl)-acetyl]thiourea]			32.8 nM	63.8%	3.2 nM	
COc1cc2nccc(Oc3ccc(NC(=O)NC(=O)Cn4ncc5ccccc54)cc3F)c2cc1OC [Example 14, N-4-[(6,7-Dimethoxy-4-quinolyl)oxy]-3-fluorophenyl-N′-[2-(1H-1-indazolyl)acetyl]urea]			22.3 nM		12.5 nM	42.6%
COc1cc(Oc2ccnc3cc(OC)c(OC)cc23)ccc1NC(=S)NC(=O)Cn1ncc2ccccc21 [Example 15, N-4-[(6,7-Dimethoxy-4-quinolyl)oxy]-2-methoxyphenyl-N′-[2-(1 H-1-indazolyl)acetyl]thiourea]			13.2 nM		9.6 nM	
COc1cc2nccc(Oc3ccc(NC(=O)NC(=O)Cn4ccc5ccccc54)cc3F)c2cc1OC [Example 16, N-4-[(6,7-Dimethoxy-4-quinolyl)oxy]-3-fluorophenyl-N′-[2-(1H-1-indolyl)acetyl]urea]			35.9 nM			

— patent US20090270391A1, “THIENOPYRIDINE DERIVATIVE, OR QUINOLINE DERIVATIVE, OR QUINAZOLINE DERIVATIVE, HAVING c-MET AUTOPHOSPHORYLATION INHIBITING POTENCY” (Kirin Pharma Kabushiki Kaisha, priority 2005, published 2009)
